Reference: article PMC9322052, “Synthesis and Biological Activity Screening of Newly Synthesized Trimethoxyphenyl-Based Analogues as Potential Anticancer Agents” (Molecules, 2022)

Experiments:
Bax = test: ELISA quantification of Bax level; assay type: cell-based, human; conditions: HepG2, 1.38 μM (IC50), 48 h
Protocol: Compound 9 was screened for its ability to activate p53 and Bax as well as downregulate the level of Bcl-2 to investigate the mechanistic apoptotic pathway that catalyzed the apoptosis process. HepG2 cells were treated with compound 9 at a concentration equal to its IC50 in μM, and the level of p53, Bax, and Bcl-2 was quantized using ELISA analysis. The results obtained for compound 9 show the increase in the level of p53 and Bax by 8.91- and 4.50-fold, respectively, compared with the negative control samples.
Apoptotic markers (p53, Bax and Bcl-2) were measured in HepG2 cells using ELISA analysis according to the manufacturer’s directions. See Section 3.3.6 in Supplementary Material.
Figure 6 (A) The quantification of p53. (B) The quantification of Bax. (C) The quantification of Bcl-2. HepG2 cells were treated with 1.38 μM of compound 9 for 48 h and apoptotic markers were determined by ELISA assay.
3.3.1. Cytotoxic activity evaluation
To measure the cytotoxic activity of the synthesized derivatives 2a-11 in hepatocel-lular carcinoma (HepG2) cell line (ATCC Cat No. HB-8065) as well as normal human liver cell line HL-7702 (ATCC Cat. No. 77402), cell viability assay was assessed using MTT assay method. […] The color inten-sity of the formazan product, which represents the growth condition of the cells, is quan-tified by using an ELISA plate reader (EXL 800, USA) at 570 nm absorbance. […]

β-tubulin = test: Tubulin polymerization inhibition (beta-tubulin ELISA in HepG2 cells); assay type: cell-based, human; conditions: HepG2 cells, each compound at its IC50 concentration (9 1.38, 10 2.52, 11 3.21, podo 2.08 μM), ELISA
Protocol: The selected candidates were tested at a concentration equal to their IC50 concentration dose value. […] See Section 3.3.2 in Supplementary Material. […] page 18: 3.3. Biological studies 3.3.1. Cytotoxic activity evaluation To measure the cytotoxic activity of the synthesized derivatives 2a-11 in hepatocel- lular carcinoma (HepG2) cell line (ATCC Cat No. HB-8065) as well as normal human liver cell line HL-7702 (ATCC Cat. No. 77402), cell viability assay was assessed using MTT assay method. Cells at density of 1 x 104 were seeded in a 96-well plate at 37 °C for 24 h under 5% CO2. After incubation, the cells were treated with different concentrations of the test compounds 2a-11 and incubated for 24 h, then 20 μl of MTT solution at 5 mg/mL was […] Dimethyl sulphoxide (DMSO) in volume of 100 μl was added to each well to dissolve the purple formazan that had formed. The color […] of the formazan product, which represents the growth condition of the cells, is quan- […] by using an ELISA plate reader (EXL 800, USA) at 570 nm absorbance. The experi- mental conditions were carried out with at least three replicates, and the experiments were repeated at least three times. 3.3.2. Tubulin inhibitions Assay […] according to the manufacturer's instructions using # abcam Human Beta-tubulin […] ELISA Kit ab245722. 3.3.3. Cell cycle analysis of compound 9 Cell cycle analysis in HepG2 cells was investigated using fluorescent Annexin V- FITC/ PI detection kit (BioVision EZCellTM Cell Cycle Analysis Kit Catalog #K920) by flow cytometry assay. […] twice in PBS. After that, the cells were incubated at 37 °C and 5% CO2. […] Apoptosis assay for compound 9 Apoptosis in HepG2 cells was investigated using fluorescent Annexin V-FITC/ PI de- tection kit (BioVision Annexin V-FITC Apoptosis Detection Kit, Catalog #: K101) by flow cy- tometry assay. […] The samples were immediately analyzed using FACS Calibur flow cytometer (Becton and Dickinson, Heidelberg, Germany). 3.3.5. Measurement of mitochondrial membrane potential (MMP) for compound 9 MMP was measured by FACS analysis using abcam ab113852TMRE Mitochondrial Membrane Potential Assay Kit with DiOC2(3) staining using MitoProbeTM DiOC2(3) Assay Kit for Flow Cytometry (M34150). After treatment with compound 9 at its IC50 concentra- tion, cells were stained with DiOC2(3) dye for 30 min in the incubator, then harvested and washed with PBS. […] The samples were immediately analyzed using cell Quest software. […] Effect on p53, Bax and Bcl-2 p53, Bax and Bcl2 enzyme activities in HepG2 cells were detected in the presence of com- pound 9 at its IC50 concentration (μM). The levels of the tumor suppressor gene p53, apoptotic markers Bax as well as the anti-apoptotic marker Bcl-2 were assessed using p53 ELISA kit, Human Bax ELISA kit and Bcl-2 Elisa kit. […]

COc1ccc(C2=N/C(=C\c3cc(OC)c(OC)c(OC)c3)C(=O)NN2c2ccccc2)cc1OC [Compound 9, (Z)-3-(3,4-Dimethoxyphenyl)-2-Phenyl-5-(3,4,5-Trimethoxybenzylidene)-1,2-Dihydro-1,2,4-Triazin-6(5H)-one]
increase in level of Bax compared with negative control (Bax): 4.50 fold | β-tubulin polymerization inhibition percentage (β-tubulin): 86.73%
